From patent publication US10640534B2 (Agios Pharmaceuticals, Inc., priority 2012, dated 2020) come the findings set out here.

For one assay, the system named is HT1080 cells. The experiment in a line: Cellular assay, inhibition of 2-HG production in HT1080 cells. The conditions noted are these: Homo sapiens, HT-1080, 48 h. Type of assay: cell-based. As to the method: Cells (HT1080 or U87MG) are grown in T125 flasks in DMEM containing 10% FBS, 1× penicillin/streptomycin and 500 ug/mL G418 (present in U87MG cells only). They are harvested by trypsin and seeded into 96 well white bottom plates at a density of 5000 cell/well in 100 ul/well in DMEM with 10% FBS. […] Cells are incubated overnight at 37° C. in 5% CO2. The next day test compounds are made up at 2× the final concentration and 100 ul are added to each cell well. The final concentration of DMSO is 0.2% and the DMSO control wells are plated in row G. The plates are then placed in the incubator for 48 hours. […] The cell plate is placed back in the incubator for another 24 hours. At 72 hours post compound addition, 10 mL/plate of Promega Cell Titer Glo reagent is thawed and mixed. The cell plate is removed from the incubator and allowed to equilibrate to room temperature. Then 100 ul of Promega Cell Titer Glo reagent is added to each well of media. The cell plate is then placed on an orbital shaker for 10 minutes and then allowed to sit at room temperature for 20 minutes. The plate is then read for luminescence with an integration time of 500 ms.

A further assay relates to U87MG cells. The experiment in a line: Cellular assay, inhibition of 2-HG production in U87MG cells. Type of assay: cell-based. The conditions noted are these: Homo sapiens, U-87 MG, 48 h. A digest of the protocol: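 HT1080 or U87MG cells (U87MG kept with 500 ug/mL G418) seeded at 5000 cells/well and treated with compound at 0.2% final DMSO. Incubated 48 h at 37 °C. 2-HG inhibition determined by LC-MS. Viability read by CellTiter-Glo luminescence at 72 h post-dose.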

For the molecule `O=C(NC1CC(F)(F)C1)[C@H](c1ccccc1Cl)N(C(=O)[C@@H]1CCC(=O)N1c1cc(C(F)(F)F)ccn1)c1cccc(F)c1` [Compound 40], the IC50 in the assay with HT1080 cells and in the assay with U87MG cells was 0.1 to 0.5 µM throughout.
In the case of `N#Cc1ccnc(N2C(=O)CC[C@H]2C(=O)N(c2cccc(OC3CC3)c2)C(C(=O)NC2CC(F)(F)C2)c2ccccc2Cl)n1` (stereo partly drawn) [Compound 192, (2S)—N-(1-(2-Chlorophenyl)-2-((3,3-difluorocyclobutyl)amino)-2-oxoethyl)-1-(4-cyanopyrimidin-2-yl)-N-(3-cyclopropoxyphenyl)-5-oxopyrrolidine-2-carboxamide], the IC50 with HT1080 cells and in the assay with U87MG cells was under 0.1 µM in each case.
As for `N#Cc1cccc(N(C(=O)[C@@H]2CCC(=O)N2c2nccc(C#N)n2)[C@H](C(=O)NC2CCC(F)(F)CC2)c2ccccc2Cl)c1` [Compound 178, (S)—N—((S)-1-(2-Chlorophenyl)-2-((4,4-difluorocyclohexyl)amino)-2-oxoethyl)-N-(3-cyanophenyl)-1-(4-cyanopyrimidin-2-yl)-5-oxopyrrolidine-2-carboxamide], the values for the IC50 in the assay with HT1080 cells and in the assay with U87MG cells were 0.1 to 0.5 µM and under 0.1 µM, respectively.
For the molecule `O=C(NC1CCC(F)(F)C1)C(c1ccccc1Cl)N(C(=O)[C@@H]1CCC(=O)N1c1ncccn1)c1cccc(F)c1` (mixture of isomers) [Compound 73, (2S)—N-(1-(2-Chlorophenyl)-2-((3,3-difluorocyclopentyl)amino)-2-oxoethyl)-N-(3-fluorophenyl)-5-oxo-1-(pyrimidin-2-yl)pyrrolidine-2-carboxamide], the IC50 in the assay with HT1080 cells and in the assay with U87MG cells was under 0.1 µM each time.
With `CC(C)(C)c1cccc(N(C(=O)[C@@H]2CCC(=O)N2c2nccc(C#N)n2)[C@H](C(=O)NC2CC(F)(F)C2)c2ccccc2Cl)c1` [Compound 165, (S)—N-(3-(tert-Butyl)phenyl)-N—((S)-1-(2-chlorophenyl)-2-((3,3-difluorocyclobutyl)amino)-2-oxoethyl)-1-(4-cyanopyrimidin-2-yl)-5-oxopyrrolidine-2-carboxamide], the IC50 in the assay with HT1080 cells and with U87MG cells was under 0.1 µM throughout.
The molecule `O=C(NC1CCC(F)(F)CC1)[C@@H](c1ccccc1Cl)N(C(=O)[C@@H]1CCC(=O)N1c1ncccn1)c1cccc(F)c1` [Compound 3, (S)—N—((R)-1-(2-Chlorophenyl)-2-((4,4-difluorocyclohexyl)amino)-2-oxoethyl)-N-(3-fluorophenyl)-5-oxo-1-(pyrimidin-2-yl)pyrrolidine-2-carboxamide] came in with an IC50 in the assay with HT1080 cells of 0.1 to 0.5 µM.
The same measure, in the same setting: the value for `Cc1cccc(N2C(=O)CC[C@H]2C(=O)N(c2cccc(F)c2)[C@H](C(=O)NC2CC(F)(F)C2)c2ccccc2Cl)n1` [Compound 28] was under 0.1 µM; that for `O=C(NC1CCCCC1)[C@@H](c1ccccc1Cl)N(C(=O)[C@@H]1CCC(=O)N1c1ncccn1)c1cccc(F)c1` [Compound 6] was 0.1 to 0.5 µM.
For the molecule `N#Cc1ccnc(N2C(=O)CC[C@H]2C(=O)N(c2cccc(C3CC3)c2)[C@H](C(=O)NC2CC(F)(F)C2)c2ccccc2Cl)c1` [Compound 173, (S)—N—((S)-1-(2-Chlorophenyl)-2-((3,3-difluorocyclobutyl)amino)-2-oxoethyl)-1-(4-cyanopyridin-2-yl)-N-(3-cyclopropylphenyl)-5-oxopyrrolidine-2-carboxamide], the IC50 in the assay on U87MG cells is under 0.1 µM.
Still for that read-out and setting: for `O=C(NC1CC(F)(F)C1)[C@H](c1ccccc1Cl)N(C(=O)[C@@H]1COC(=O)N1c1cscn1)c1cccc(F)c1` [Compound 72, (S)—N—((S)-1-(2-Chlorophenyl)-2-((3,3-difluorocyclobutyl)amino)-2-oxoethyl)-N-(3-fluorophenyl)-2-oxo-3-(thiazol-4-yl)oxazolidine-4-carboxamide] the value was under 0.1 µM; for `N#Cc1ccnc(N2C(=O)[C@H](F)C[C@H]2C(=O)N(c2cccc(F)c2)[C@H](C(=O)NC2CCC(F)(F)CC2)c2ccccc2Cl)c1` [Compound 151, (2S,4R)—N—((S)-1-(2-Chlorophenyl)-2-((4,4-difluorocyclohexyl)amino)-2-oxoethyl)-1-(4-cyanopyridin-2-yl)-4-fluoro-N-(3-fluorophenyl)-5-oxopyrrolidine-2-carboxamide], under 0.1 µM.
Regarding `N#Cc1ccnc(N2C(=O)OCC[C@H]2C(=O)N(c2cc(F)cc(F)c2)[C@H](C(=O)NC2CC(F)(F)C2)c2ccccc2Cl)c1` [Compound 133, (S)—N—((S)-1-(2-Chlorophenyl)-2-((3,3-difluorocyclobutyl)amino)-2-oxoethyl)-3-(4-cyanopyridin-2-yl)-N-(3,5-difluorophenyl)-2-oxo-1,3-oxazinane-4-carboxamide], the IC50 in the assay with U87MG cells was under 0.1 µM.
Regarding `N#Cc1ccnc(N2C(=O)OCC[C@H]2C(=O)N(c2cc(F)cc(F)c2)[C@H](C(=O)NC2CCC(F)(F)CC2)c2ccccc2Cl)c1` [Compound 139, (S)—N—((S)-1-(2-Chlorophenyl)-2-((4,4-difluorocyclohexyl)amino)-2-oxoethyl)-3-(4-cyanopyridin-2-yl)-N-(3,5-difluorophenyl)-2-oxo-1,3-oxazinane-4-carboxamide], in the assay with U87MG cells, the IC50 is under 0.1 µM.
The same measure, in the same setting: for `N#Cc1cc(F)cc(N(C(=O)[C@@H]2CCC(=O)N2c2nccc(C#N)n2)[C@H](C(=O)NC2CCC(F)(F)CC2)c2ccccc2Cl)c1` [Compound 185, (S)—N—((S)-1-(2-Chlorophenyl)-2-((4,4-difluorocyclohexyl)amino)-2-oxoethyl)-N-(3-cyano-5-fluorophenyl)-1-(4-cyanopyrimidin-2-yl)-5-oxopyrrolidine-2-carboxamide] the value was under 0.1 µM; for `N#Cc1ccnc(N2C(=O)CNC[C@H]2C(=O)N(c2cc(F)cc(F)c2)[C@H](C(=O)NC2CC(F)(F)C2)c2ccccc2Cl)n1` [Compound 99, (S)—N—((S)-1-(2-chlorophenyl)-2-((3,3-difluorocyclobutyl)amino)-2-oxoethyl)-1-(4-cyanopyrimidin-2-yl)-N-(3,5-difluorophenyl)-6-oxopiperazine-2-carboxamide], under 0.1 µM.
Same read-out and setting: the value for `CN(C)c1cccc(N(C(=O)[C@@H]2CCC(=O)N2c2cc(C#N)ccn2)[C@H](C(=O)NC2CC(F)(F)C2)c2ccccc2Cl)c1` [Compound 161, (S)—N—((S)-1-(2-Chlorophenyl)-2-(3,3-difluorocyclobutylamino)-2-oxoethyl)-1-(4-cyanopyridin-2-yl)-N-(3-(dimethylamino)phenyl)-5-oxopyrrolidine-2-carboxamide] was under 0.1 µM.
Still for that read-out and setting: for `N#Cc1ccnc(N2C(=O)CC[C@H]2C(=O)N(c2cccc(F)c2)[C@H](C(=O)NC2CC(F)(F)C2)c2ccccc2)c1` [Compound 138, (S)-1-(4-Cyanopyridin-2-yl)-N—((S)-2-((3,3-difluorocyclobutyl)amino)-2-oxo-1-phenylethyl)-N-(3-fluorophenyl)-5-oxopyrrolidine-2-carboxamide] the value was under 0.1 µM; for `N#Cc1cccnc1N1C(=O)CC[C@H]1C(=O)N(c1cccc(F)c1)[C@H](C(=O)NC1CC(F)(F)C1)c1ccccc1Cl` [Compound 69, (S)—N—((S)-1-(2-Chlorophenyl)-2-((3,3-difluorocyclobutyl)amino)-2-oxoethyl)-1-(3-cyanopyridin-2-yl)-N-(3-fluorophenyl)-5-oxopyrrolidine-2-carboxamide], under 0.1 µM.
In the assay on U87MG cells, `N#Cc1cnc(N2C(=O)CC[C@H]2C(=O)N(c2cc(F)cc(F)c2)[C@H](C(=O)NC2CC(F)(F)C2)c2ccccc2Cl)o1` [Compound 162, (S)—N—((S)-1-(2-chlorophenyl)-2-((3,3-difluorocyclobutyl)amino)-2-oxoethyl)-1-(5-cyanooxazol-2-yl)-N-(3,5-difluorophenyl)-5-oxopyrrolidine-2-carboxamide] yielded an IC50 of under 0.1 µM.
In the assay with U87MG cells, `O=C(NC1CC(F)(F)C1)C(c1ccccc1Cl)N(C(=O)C1CCC(=O)N1c1cnccn1)c1cccc(F)c1` (stereo not shown) [Compound 18] had an IC50 of under 0.1 µM.
In the case of `N#Cc1ccnc(N2C(=O)[C@@H](O)C[C@H]2C(=O)N(c2cccc(F)c2)[C@H](C(=O)NC2CC(F)(F)C2)c2ccccc2Cl)n1` [Compound 119, (2S,4S)—N—((S)-1-(2-Chlorophenyl)-2-(3,3-difluorocyclobutylamino)-2-oxoethyl)-1-(4-cyanopyrimidin-2-yl)-N-(3-fluorophenyl)-4-hydroxy-5-oxopyrrolidine-2-carboxamide], in the assay with U87MG cells, the IC50 lay within 0.1 to 0.5 µM.
On the same count and under the same terms, the value for `N#Cc1ccnc(N2C(=O)CC[C@H]2C(=O)N(c2cc(F)cc(F)c2)[C@H](C(=O)NC2CC(F)(F)C2)c2c(Cl)cccc2Cl)c1` [Compound 199, (S)-1-(4-Cyanopyridin-2-yl)-N—((S)-1-(2,6-dichlorophenyl)-2-((3,3-difluorocyclobutyl)amino)-2-oxoethyl)-N-(3,5-difluorophenyl)-5-oxopyrrolidine-2-carboxamide] was under 0.1 µM; that for `N#Cc1ccnc(N2C(=O)CC[C@H]2C(=O)N(c2cc(F)cc(F)c2)[C@H](C(=O)NC2CC(F)(F)C2)c2ccccc2Cl)n1` [Compound 86, (S)—N—((S)-1-(2-Chlorophenyl)-2-((3,3-difluorocyclobutyl)amino)-2-oxoethyl)-1-(4-cyanopyrimidin-2-yl)-N-(3,5-difluorophenyl)-5-oxopyrrolidine-2-carboxamide] was under 0.1 µM.

As usually defined, the IC50 is the point on the concentration scale where inhibition reaches its midpoint. Read a high IC50 as lower potency.
